Columns and labels:
[1] = target: T1, aryl hydrocarbon receptor (AhR) (Mus musculus, UniProt P30561); assay: Activation of AhR in mice after oral administration, qPCR of CYP1A1; format: in vivo; conditions: for Colon CYP1A1 (fold change over untreated), Mean / Liver CYP1A1 (fold change over untreated), Mean: day 14, C57Bl/6 mice
T1 construct: evaluated in a wild-type (WT) mice; from tissue; host or cells: colon and liver of wild-type mice, in vivo after oral dosing
T1 sequence (P30561 10-848): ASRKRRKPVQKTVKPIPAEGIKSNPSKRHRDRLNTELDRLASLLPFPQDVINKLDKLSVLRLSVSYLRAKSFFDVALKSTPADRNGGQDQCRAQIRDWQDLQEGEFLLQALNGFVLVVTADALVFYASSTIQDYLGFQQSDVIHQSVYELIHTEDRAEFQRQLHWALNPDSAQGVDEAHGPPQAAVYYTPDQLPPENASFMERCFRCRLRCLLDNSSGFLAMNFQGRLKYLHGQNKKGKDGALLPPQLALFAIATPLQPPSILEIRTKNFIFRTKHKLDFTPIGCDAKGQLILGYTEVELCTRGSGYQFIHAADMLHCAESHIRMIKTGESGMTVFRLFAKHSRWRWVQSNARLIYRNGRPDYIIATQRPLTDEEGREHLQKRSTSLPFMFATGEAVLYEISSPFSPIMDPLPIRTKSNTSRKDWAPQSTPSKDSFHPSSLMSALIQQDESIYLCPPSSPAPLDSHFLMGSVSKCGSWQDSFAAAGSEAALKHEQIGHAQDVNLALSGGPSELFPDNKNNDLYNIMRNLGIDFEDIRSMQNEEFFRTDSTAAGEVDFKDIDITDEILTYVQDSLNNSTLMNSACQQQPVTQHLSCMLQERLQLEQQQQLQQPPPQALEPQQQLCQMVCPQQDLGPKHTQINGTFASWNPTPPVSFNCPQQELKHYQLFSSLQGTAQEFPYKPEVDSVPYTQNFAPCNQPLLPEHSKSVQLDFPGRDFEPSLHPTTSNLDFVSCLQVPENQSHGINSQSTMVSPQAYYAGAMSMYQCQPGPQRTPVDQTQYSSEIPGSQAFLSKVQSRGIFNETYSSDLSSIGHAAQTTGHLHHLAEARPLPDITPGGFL
Description: The potential of the 5-chloro-4-hydroxy-1-methyl-2-oxo-N-phenyl-quinoline-3-carboxamide potassium salt (Example compound 1) to activate the aryl hydrocarbon receptor (AhR) in the colon following oral administration was evaluated in a wild-type (WT) mice.
On study day 0, animals were weighed and evenly distributed into treatment groups based on body weight.
On study day 14, animals were asphyxiated via CO2 inhalation followed by cervical dislocation. The entire colon was removed, collected and prepared for qPCR analysis of CYP1A1 (Normalized to GAPDH & ACTB).
The Example compound 1 was formulated as a 0.1 mg/ml, 0.01 mg/ml or 0.001 mg/ml suspension with sodium carboxymethyl cellulose (1%, w/v).

[2] = test system: CD4+ adoptive transfer induced inflammatory bowel disease; assay: CD4+ adoptive transfer induced inflammatory bowel disease in mice; format: in vivo
Description: The efficacy of the 5-chloro-4-hydroxy-1-methyl-2-oxo-N-phenyl-quinoline-3-carboxamide potassium salt in inhibiting inflammation/edema associated with inflammatory bowel disease was evaluated in a CD4+ adoptive transfer induced inflammatory bowel disease in mice.
On study day -1, SCID mice were weighed and evenly distributed into treatment groups based on body weight.
On study day 0, Balb/C mice were terminated, and spleens obtained for CD4^+CD45RB^high cell isolation (Using SCID IBD Cell Separation Protocol). After cells were sorted and obtained, each animal in the treatment groups received an IP injection of CD4^+CD45RB^high cells at a minimum 4x10^5 cells (200 µl/mouse injections). A naive group of mice was followed through the experiment without receiving the injection of cells. The naive group comprised 5 animals.
On study day 21, treatment with 5-chloro-4-hydroxy-1-methyl-2-oxo-N-phenylquinoline-3-carboxamide potassium salt (1 mg/kg, daily day 21 to 49) was initiated. The compound was formulated as a 0.1 mg/mL suspension with sodium carboxymethyl cellulose (1%, w/v). Mice received either the 5-chloro-4-hydroxy-1-methyl-2-oxo-N-phenyl-quinoline-3-carboxamide potassium salt (Example compound 1) or vehicle. Each of those groups comprised 10 animals.
On study day 49, animals were anesthetized with Isoflurane and bled to exsanguination followed by cervical dislocation. The entire colon was removed, measured, and weighed. The colon was analysed for its level of interferon-γ and IL-22. The inflammation in the colons was also scored by visual and histopathological assessments.

[3] = Hygroscopicity by Dynamic Vapour Sorption (DVS); format: physicochemical; conditions: 25° C.; for Hygroscopicity: DVS, 0 to 90% RH, potassium salt
Description: Dynamic Vapour Sorption (DVS) analysis was carried out on a sample of Example compound 1.
Approximately 20 mg of sample was placed into a wire-mesh vapour sorption balance pan and loaded into an ‘IgaSorp’ vapour sorption balance (Hiden Analytical Instruments). The sample was then dried by maintaining a 0% humidity environment until no further weight change was recorded.
The sample was then subjected to a step profile from 0 to 90% RH at 10% RH increments. The desorption isotherm was from 90% RH o 0% RH in 10% RH steps. The weight change during the sorption/desorption cycles were then monitored, allowing for the hygroscopic nature of the sample to be determined. Analysis was performed using the following parameters: • Analysis Mode F1 • Wait Time 99% • Sample Temperature 25° C. • Min Time Out 30 Mins • MaxTime Out 180 Mins • Gas Flow Rate 250 ml/min

SMILES: Cn1c(=O)c(C(=O)Nc2ccccc2)c([O-])c2c(Cl)cccc21.[K+] [Example compound 1, 5-chloro-4-hydroxy-1-methyl-2-oxo-N-phenyl-quinoline-3-carboxamide potassium salt]
- Colon CYP1A1 (fold change over untreated), Mean ([1]; 0.01 mg/kg PO QD D0-13, colon): 1.03 fold change over untreated
- Liver CYP1A1 (fold change over untreated), Mean ([1]; 0.01 mg/kg PO QD D0-13, liver): 1.08 fold change over untreated
- Colon CYP1A1 (fold change over untreated), Mean ([1]; 0.1 mg/kg PO QD D0-13, colon): 7.42 fold change over untreated
- Liver CYP1A1 (fold change over untreated), Mean ([1]; 0.1 mg/kg PO QD D0-13, liver): 2.81 fold change over untreated
- Colon CYP1A1 (fold change over untreated), Mean ([1]; 1.0 mg/kg PO QD D0-13, colon): 8.34 fold change over untreated
- Liver CYP1A1 (fold change over untreated), Mean ([1]; 1.0 mg/kg PO QD D0-13, liver): 3.44 fold change over untreated
- CYP1A1 mRNA expression compared to untreated animals ([1]; 1.0 and 0.1 mg/kg oral, WT mice): significant increase
- Body weight change ([2]; 1 mg/kg daily day 21 to 49, SCID mice, vs vehicle, FIG. 4): less weight loss
- Colon level of inflammatory markers (interferon-γ and IL-22) ([2]; 1 mg/kg daily day 21 to 49, day 49, vs vehicle, FIG. 5): lower levels of inflammatory markers
- Colon inflammation scores (visual and histopathological) ([2]; 1 mg/kg daily day 21 to 49, day 49, vs vehicle, FIG. 6): fewer signs of inflammation
- Inhibition of inflammation/edema associated with inflammatory bowel disease ([2]; CD4+ adoptive transfer model in mice, summary statement): effective in inhibiting inflammation/edema
- Hygroscopicity ([3]; listed as 5-chloro-4-hydroxy-1-methyl-2-oxo-N-phenylquinoline-3-carboxamide potassium salt): not hygroscopic
- Hygroscopicity [3]: non-hygroscopic
- Reversible weight gain (DVS) ([3]; analysed to 80% RH): less than 0.2%

From US20230202982A1, “5-CHLORO-4-HYDROXY-1-METHYL-2-OXO-N-PHENYL-QUINOLINE-3-CARBOXAMIDE POTASSIUM SALT FOR TREATING INFLAMMATORY BOWEL DISEASES” (Aqilion AB, priority 2020, published 2023)
